Source: patent publication US8440666B2, “Pyridazinone compounds and P2X7 receptor inhibitors” (Nissan Chemical Industries, Ltd., priority 2007, dated 2013)
pIC50: −log10 of the molar value.

What was measured:
[1] = test system: IL-1β in supernatants of peripheral blood mononuclear cells; experiment: IL-1β assay: BzATP- or ATP-induced IL-1β release from LPS-treated human peripheral blood mononuclear cells; assay type: cell-based; conditions: 2 h; IL-1β in supernatants of LPS-treated human PBMC; BzATP (1 mM) or ATP (5 mM), 120 min
Description: Human whole blood from healthy volunteers was diluted with equal volume of saline and peripheral blood mononuclear cells were collected by using a Limphoprep tube (Daiichi Pure Chemicals), washed with physiological saline and seeded onto a 96-well plate with a medium containing 1-10 ng/mL LPS (SIGMA). 30 minutes later, the cells were treated with varying concentrations of various compounds and incubated for 30 minutes. Then, the cells were treated with BzATP (final concentration 1 mM) or ATP (final concentration 5 mM) and incubated for 120 minutes. The cells were centrifugated to collect supernatents, and the concentration of IL-1β in supernatants were determined by IL-1β HTRF kit (CIS biointernational). The % inhibition rates were calculated and plotted against the logarithms of the concentrations to determine IC50.

[2] = target: T1, Human P2X7 (hP2X7) receptor (Homo sapiens, UniProt Q99572); experiment: Dye assay: BzATP-induced Yo-Pro-1 uptake in HEK293 cells stably expressing hP2X7; assay type: cell-based; conditions: 90 min incubation
T1 construct: myc-His (from the pcDNA3.1/myc-HisA vector); expressed in transfected cells
T1 sequence (Q99572 1-595): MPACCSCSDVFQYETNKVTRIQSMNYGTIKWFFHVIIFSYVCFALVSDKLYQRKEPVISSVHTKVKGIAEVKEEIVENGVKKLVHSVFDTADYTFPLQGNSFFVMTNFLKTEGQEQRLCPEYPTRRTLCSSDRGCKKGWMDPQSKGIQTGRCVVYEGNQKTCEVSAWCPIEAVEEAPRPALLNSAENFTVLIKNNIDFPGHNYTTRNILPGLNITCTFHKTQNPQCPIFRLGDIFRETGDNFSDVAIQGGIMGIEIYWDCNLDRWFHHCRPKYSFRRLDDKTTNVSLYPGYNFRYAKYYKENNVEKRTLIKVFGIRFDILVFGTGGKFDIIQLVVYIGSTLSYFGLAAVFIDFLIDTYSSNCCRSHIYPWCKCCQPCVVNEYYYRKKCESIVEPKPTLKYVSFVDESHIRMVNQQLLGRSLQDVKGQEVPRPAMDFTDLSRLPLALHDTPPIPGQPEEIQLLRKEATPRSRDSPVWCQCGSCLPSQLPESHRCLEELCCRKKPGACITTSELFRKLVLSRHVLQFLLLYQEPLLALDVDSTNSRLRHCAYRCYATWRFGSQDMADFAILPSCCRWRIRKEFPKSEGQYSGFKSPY
Summary of the method: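 HEK293 cells stably expressing cloned human P2X7 (595 aa) were preincubated 30 min with compound, then given 2 μM Yo-Pro-1 and 0.1 mM BzATP (final) for 90 min. Dye uptake read by fluorescence (ex 485/em 535 nm); IC50 derived from % inhibition versus log concentration.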

[3] = BzATP (0.1 mM)-induced Yo-Pro-1 uptake, compounds 30 min pre-treatment
[4] = BzATP 0.1 mM, Yo-Pro-1 2 μM, 30 min pre-treatment

| Compound | pIC50 [1] | pIC50 [2, 3] | pIC50 [2, 4] |
| --- | --- | --- | --- |
| O=C(Cn1ncc(NC2C3CCCC2CCC3)c(Br)c1=O)NCc1ccncc1 (centres unmarked) [compound 325] | 7.40 | 8.05 |  |
| CCC(NC(=O)Cn1ncc(N[C@@H]2C[C@@H]3C[C@@H](C3(C)C)[C@]2(C)O)c(Br)c1=O)c1ccncc1 (some centres unmarked) [compound 358] | 7.42 | 8.00 |  |
| CC(NC(=O)Cn1ncc(NC2C3CCCC2CCC3)c(Cl)c1=O)c1ccncc1Cl (centres unmarked) [compound 378] | 8.82 | 8.82 |  |
| Cc1cnncc1CNC(=O)Cn1ncc(N[C@@H]2C[C@@H]3C[C@H]([C@H]2C)C3(C)C)c(Cl)c1=O [compound 432] | 7.77 |  | 8.68 |
| C[C@@H]1[C@H]2C[C@@H](C[C@H]1Nc1cnn(CC(=O)NCc3ccnnc3Cl)c(=O)c1Cl)C2(C)C [compound 433] | 7.29 |  | 8.21 |
| C[C@@H]1[C@H]2C[C@@H](C[C@H]1Nc1cnn(CC(=O)NCc3ccnnc3N(C)C)c(=O)c1Cl)C2(C)C [compound 435] | 7.44 |  | 8.49 |
| C[C@@H]1[C@H]2C[C@@H](C[C@H]1Nc1cnn(CC(=O)NCc3ccncc3S(C)(=O)=O)c(=O)c1Cl)C2(C)C [compound 442] | 7.57 |  | 8.77 |
